Where two headings read alike, the source gives them in different places.
Experiments:
[1] = target: T1, recombinant human cGAS (aa147-522) (Homo sapiens, UniProt Q8N884); test: In vitro inhibition assay of cGAS activity (ATP consumption, KinaseGlo Max); format: biochemical
T1 construct: recombinant human cGAS (aa147-522); His6-SUMO (cleaved yes); made in house; host or cells: E. coli BL21/pLys
Outline: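 IC50 came from plotting % ATP consumption against log compound concentration, with leftover ATP detected by KinaseGlo Max chemiluminescence. Reactions ran 20 min at 37 °C with 1.5 μg/mL human cGAS (aa147-522), 6.6 μM ATP, 0.1 mM GTP and 0.01 mg/mL DNA at pH 7.5.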

[2] = tested on: cGAS activity in Reporter THP1 cell line; test: Cellular assay to measure cGAS activity: ISRE-Gaussia luciferase reporter THP1 cells transfected with ISD; format: cell-based; details: Homo sapiens
Outline: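 THP1 ISRE-Gaussia luciferase reporter cells (0.3×10^6/well) pre-incubated 5 min with compound serial dilutions, then lipofectamine-transfected with 2 μg/mL ISD (45 bp DNA) or mock. Secreted luciferase read 16 h later with 1 μM coelenterazine at pH 6.5; IC50 from fold increase over mock. Specificity counter-screen used 2 μg/mL poly(I:C) or Sendai virus 50 Unit/mL.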

[3] = Table 3, read-out: cGAS Inhibition Results IC50
[4] = THP-1, untitled table after Table 4 (continuation)
[5] = THP-1, Table 4, Gaussia luciferase
[6] = Table 2, read-out: cGAS Inhibition Results IC50

T1 sequence (Q8N884 147-522): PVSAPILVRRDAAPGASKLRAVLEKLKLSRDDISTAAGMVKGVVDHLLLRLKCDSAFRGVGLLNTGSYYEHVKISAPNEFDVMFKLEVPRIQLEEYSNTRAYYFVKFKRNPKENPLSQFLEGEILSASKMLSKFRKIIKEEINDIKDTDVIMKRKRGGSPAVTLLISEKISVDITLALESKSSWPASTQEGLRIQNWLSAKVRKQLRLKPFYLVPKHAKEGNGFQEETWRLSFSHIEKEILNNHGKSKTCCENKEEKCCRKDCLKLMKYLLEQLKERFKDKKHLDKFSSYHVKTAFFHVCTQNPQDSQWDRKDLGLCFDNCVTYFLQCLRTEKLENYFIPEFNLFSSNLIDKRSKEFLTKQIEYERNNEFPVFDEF

Row | Compound | IC50 [1, 3] [µM] | IC50 [2, 4] [µM] | IC50 [2, 5] [µM] | IC50 [1, 6] [µM]
1 | C=C1C[C@@H](COCCC(=O)O)N(c2cc(-n3ccnc3)c3ccc(Cl)c(Cl)c3n2)C1 [I-801] | < 2 | < 2 | – | –
2 | O=C(O)c1cnn(CC[C@@H]2CCCN2c2cc(-n3ccnc3)c3ccc(Cl)c(Cl)c3n2)c1 [I-730] | < 2 | – | 2 to 10 | –
3 | CC1CCN(c2cc(-n3ccnc3)c3ccc(Cl)c(Cl)c3n2)C1C(=O)O (stereo not drawn) [I-473] | < 2 | – | < 2 | –
4 | COC(=O)CCC(=O)NNc1cc(-n2ccnc2)c2ccc(Cl)c(Cl)c2n1 [I-758] | 2 to 30 | > 10 | – | –
5 | COC(=O)[C@@H]1[C@@H]2C[C@@H]2CN1c1cc(-n2ccnc2)c2ccc(Cl)c(Cl)c2n1 [I-577] | 2 to 30 | – | 2 to 10 | –
6 | COc1ccc(-c2cc(-n3ccnc3)c3ccc(Cl)c(Cl)c3n2)cc1C(=O)O [I-39] | – | – | 2 to 10 | < 2
7 | COC(=O)CCOC[C@@H]1CCCN1c1cc(-n2ccnc2)c2ccc(Cl)c(Cl)c2n1 [I-665, methyl (S)-3-((1-(7,8-dichloro-4-(1H-imidazol-1-yl)quinolin-2-yl)pyrrolidin-2-yl)methoxy)propanoate] | < 2 | – | < 2 | –
8 | O=C(O)CCOC1CCN(c2cc(-n3ccnc3)c3ccc(Cl)c(Cl)c3n2)CC1 [I-864] | < 2 | > 10 | – | –
9 | COc1cc(C(=O)O)cc(-c2cc(-n3ccnc3)c3ccc(Cl)cc3n2)c1 [I-24, 3-(7-chloro-4-(1H-imidazol-1-yl)quinolin-2-yl)-5-methoxybenzoic acid] | – | – | 2 to 10 | < 2
10 | O=C(O)C1CCCCC1OC[C@@H]1CCCN1c1cc(-n2ccnc2)c2ccc(Cl)c(Cl)c2n1 (stereo partly drawn) [I-815] | < 2 | 2 to 10 | – | –
11 | NS(=O)(=O)C1CCCN(c2cc(-n3ccnc3)c3ccc(Cl)c(Cl)c3n2)C1 (stereo not drawn) [I-116] | – | – | 2 to 10 | < 2
12 | O=C(O)C[C@@H]1CCN1c1cc(-n2ccnc2)c2ccc(Cl)c(Cl)c2n1 [I-461] | < 2 | – | > 10 | –
13 | O=C(O)CCOC[C@@H]1C[C@H](Oc2ccccc2)CN1c1cc(-n2ccnc2)c2ccc(Cl)c(Cl)c2n1 [I-713] | < 2 | – | < 2 | –
14 | O=C(O)CCOC[C@@H]1C[C@H](C(F)(F)F)CN1c1cc(-n2ccnc2)c2ccc(Cl)c(Cl)c2n1 [I-793] | < 2 | < 2 | – | –
15 | O=C(O)CCOCCN(Cc1ccccc1)c1cc(-n2ccnc2)c2ccc(Cl)c(Cl)c2n1 [I-837] | < 2 | < 2 | – | –
16 | COC(=O)CCOC[C@@H]1[C@@H](O)CCN1c1cc(-n2ccnc2)c2ccc(Cl)c(Cl)c2n1 [I-701] | < 2 | – | 2 to 10 | –
17 | CCOC(=O)[C@@H]1[C@@H](O)CCN1c1cc(-n2ccnc2)c2ccc(Cl)c(Cl)c2n1 [I-599] | 2 to 30 | – | < 2 | –
18 | O=C(O)c1ccccc1OCCNc1cc(-n2ccnc2)c2ccc(Cl)c(Cl)c2n1 [I-886] | < 2 | < 2 | – | –
19 | O=C(O)COC[C@@H](O)[C@@H]1CCCN1c1cc(-n2ccnc2)c2ccc(Cl)c(Cl)c2n1 [I-725, 2-((S)-2-((S)-1-(7,8-dichloro-4-(1H-imidazol-1-yl)quinolin-2-yl)pyrrolidin-2-yl)-2-hydroxyethoxy)acetic acid] | < 2 | – | > 10 | –
20 | O=C(O)CCOC[C@@H]1C[C@@H]2CCCC[C@@H]2N1c1cc(-n2ccnc2)c2ccc(Cl)c(Cl)c2n1 [I-808] | < 2 | < 2 | – | –
21 | NC(=O)COC[C@@H]1CCCN1c1cc(-n2ccnc2)c2ccc(Cl)c(Cl)c2n1 [I-760, (S)-2-((1-(7,8-dichloro-4-(1H-imidazol-1-yl)quinolin-2-yl)pyrrolidin-2-yl)methoxy)acetamide] | < 2 | > 10 | – | –
22 | Cc1ccc(-c2cc(-n3ccnc3)c3ccc(Cl)c(Cl)c3n2)cc1COCCC(=O)O [I-877] | < 2 | < 2 | – | –
23 | COC(=O)[C@@H]1[C@H](F)CCN1c1cc(-n2ccnc2)c2ccc(Cl)c(Cl)c2n1 [I-650] | 2 to 30 | – | 2 to 10 | –
24 | Clc1ccc2c(-n3ccnc3)cc(N3CCCC3c3ncc[nH]3)nc2c1Cl (stereo not drawn) [I-467] | 2 to 30 | – | 2 to 10 | –
25 | O=C(O)CCOC[C@@H]1CCCN1c1cc(-c2cn[nH]c2)c2ccc(Cl)c(Cl)c2n1 [I-670] | < 2 | – | < 2 | –
26 | O=C(O)CCOC[C@@H]1CC(F)(F)CN1c1cc(-n2ccnc2)c2ccc(Cl)c(Cl)c2n1 [I-699] | < 2 | – | < 2 | –
27 | CO[C@H]1C[C@@H](COCCC(=O)O)N(c2cc(-n3ccnc3)c3ccc(Cl)c(Cl)c3n2)C1 [I-797] | < 2 | < 2 | – | –

Row | Compound | IC50 [1, 3] [µM] | IC50 [2, 4] [µM] | IC50 [2, 5] [µM] | IC50 [1, 6] [µM]
28 | O=C(O)CCOC[C@@H]1C[C@@H](c2ccccc2)CN1c1cc(-n2ccnc2)c2ccc(Cl)c(Cl)c2n1 [I-802] | < 2 | < 2 | – | –
29 | CC1(C)C[C@@H](COCCC(=O)O)N(c2cc(-n3ccnc3)c3ccc(Cl)c(Cl)c3n2)C1 [I-794] | < 2 | < 2 | – | –
30 | O=C(O)CCOCC(Cc1ccccc1)Nc1cc(-n2ccnc2)c2ccc(Cl)c(Cl)c2n1 (stereo not drawn) [I-695] | 2 to 30 | – | 2 to 10 | –
31 | COC(=O)[C@@H]1C[C@@H](C)CN1c1cc(-n2ccnc2)c2ccc(Cl)c(Cl)c2n1 [I-585] | 2 to 30 | – | < 2 | –
32 | O=C(O)CCOC[C@@H]1C[C@@H]2C[C@@H]2N1c1cc(-n2ccnc2)c2ccc(Cl)c(Cl)c2n1 [I-707] | < 2 | – | < 2 | –
33 | C[C@H]1C[C@@H](C(=O)O)N(c2cc(-n3ccnc3)c3ccc(Cl)c(Cl)c3n2)C1 [I-477] | < 2 | – | 2 to 10 | –
34 | O=C(O)C1COCCN1c1cc(-n2ccnc2)c2ccc(Cl)c(Cl)c2n1 (stereo not drawn) [I-92] | – | – | > 10 | < 2
35 | COC(=O)[C@@H]1[C@@H](OC(C)=O)CCN1c1cc(-n2ccnc2)c2ccc(Cl)c(Cl)c2n1 [I-642, methyl (2S,3S)-3-acetoxy-1-(7,8-dichloro-4-(1H-imidazol-1-yl)quinolin-2-yl)pyrrolidine-2-carboxylate] | 2 to 30 | – | < 2 | –
36 | COC(=O)CCC[C@@H]1CCCN1c1cc(-n2ccnc2)c2ccc(Cl)c(Cl)c2n1 [I-681] | 2 to 30 | – | < 2 | –
37 | O=C(O)CCOCC1CCCCCN1c1cc(-n2ccnc2)c2ccc(Cl)c(Cl)c2n1 (stereo not drawn) [I-865] | < 2 | < 2 | – | –
38 | O=C(O)CCOCC1(CNc2cc(-n3ccnc3)c3ccc(Cl)c(Cl)c3n2)CC1 [I-829] | < 2 | 2 to 10 | – | –
39 | N[C@H]1CCN(c2cc(-n3ccnc3)c3ccc(Cl)c(Cl)c3n2)C1 [I-765, (S)-1-(7,8-dichloro-4-(1H-imidazol-1-yl)quinolin-2-yl)pyrrolidin-3-amine] | 2 to 30 | 2 to 10 | – | –
40 | O=C(O)CCOCCN(c1cc(-n2ccnc2)c2ccc(Cl)c(Cl)c2n1)C1CCCCC1 [I-836] | < 2 | < 2 | – | –
41 | O=C(O)C1CCCC1OC[C@@H]1CCCN1c1cc(-n2ccnc2)c2ccc(Cl)c(Cl)c2n1 (stereo partly drawn) [I-816] | < 2 | < 2 | – | –
42 | O=C(O)CCOCC[C@@H]1CCCN1c1cc(-n2ccnc2)c2ccc(Cl)c(Cl)c2n1 [I-672] | < 2 | – | < 2 | –
43 | O=C(O)C[C@@H]1[C@H](O)CCN1c1cc(-n2ccnc2)c2ccc(Cl)c(Cl)c2n1 [I-781, 2-((2R,3R)-1-(7,8-dichloro-4-(1H-imidazol-1-yl)quinolin-2-yl)-3-hydroxypyrrolidin-2-yl)acetic acid] | < 2 | > 10 | – | –
44 | O=C(OCC(F)(F)F)[C@@H]1[C@@H](O)CCN1c1cc(-n2ccnc2)c2ccc(Cl)c(Cl)c2n1 [I-556] | < 2 | – | < 2 | –
45 | CCOC(=O)[C@@H]1[C@@H](O)[C@H](C)CN1c1cc(-n2ccnc2)c2ccc(Cl)c(Cl)c2n1 [I-779] | 2 to 30 | > 10 | – | –
46 | O=C(O)CNC(=O)C[C@@H]1[C@@H](O)CCN1c1cc(-n2ccnc2)c2ccc(Cl)c(Cl)c2n1 [I-788, (2-((2R,3S)-1-(7,8-dichloro-4-(1H-imidazol-1-yl)quinolin-2-yl)-3-hydroxypyrrolidin-2-yl)acetyl)glycine] | < 2 | > 10 | – | –
47 | O=C(O)CCNC[C@@H]1CCCN1c1cc(-n2ccnc2)c2ccc(Cl)c(Cl)c2n1 [I-756, (5)-3-(((1-(7,8-dichloro-4-(1H-imidazol-1-yl)quinolin-2-yl)pyrrolidin-2-yl)methyl)amino)propanoic acid] | 2 to 30 | > 10 | – | –
48 | COC(=O)[C@@H]1CC(C)(C)CN1c1cc(-n2ccnc2)c2ccc(Cl)c(Cl)c2n1 [I-583] | 2 to 30 | – | < 2 | –
49 | O=C(O)CCOC[C@@H]1CCCCN1c1cc(-n2ccnc2)c2ccc(Cl)c(Cl)c2n1 [I-789] | < 2 | < 2 | – | –
50 | CC(C)OC(=O)[C@@H]1[C@@H](O)CCN1c1cc(-n2ccnc2)c2ccc(Cl)c(Cl)c2n1 [I-600] | 2 to 30 | – | < 2 | –
51 | COC(=O)CCN(C)C[C@@H]1CCCN1c1cc(-n2ccnc2)c2ccc(Cl)c(Cl)c2n1 [I-755, methyl (S)-3-(((1-(7,8-dichloro-4-(1H-imidazol-1-yl)quinolin-2-yl)pyrrolidin-2-yl)methyl)(methyl)amino)propanoate] | > 30 | > 10 | – | –
52 | O=C(O)CCOCC12CC(CN1c1cc(-n3ccnc3)c3ccc(Cl)c(Cl)c3n1)C2 [I-800] | < 2 | < 2 | – | –
53 | O=C(O)CCOC[C@@H]1CCN1c1cc(-n2ccnc2)c2ccc(Cl)c(Cl)c2n1 [I-688] | < 2 | – | < 2 | –
54 | COC(=O)C1C(C)CCN1c1cc(-n2ccnc2)c2ccc(Cl)c(Cl)c2n1 (stereo not drawn) [I-578] | 2 to 30 | – | 2 to 10 | –

From US11873291B2, “Quinoline cGAS antagonist compounds” (ImmuneSensor Therapeutics, Inc., priority 2020, dated 2024)
